Test results reported in patent US20250145665A1, “MACROCYCLIC PEPTIDES USEFUL AS MODULATORS OF TNF ALPHA” (Bristol-Myers Squibb Company, priority 2023, published 2025).
Starred links: 1 amine or outer side, 2 acyl side, 3 side chain; linkers in the order of their positions; H or OH if unused. Positions of bridges follow the written chain, without caps; N, C: chain ends. Non-standard residues stand in square brackets, D forms with d. Residues, ends and D or L forms follow the SMILES beside them. ξ: configuration not given here. *: point of attachment. X22 = O=C(O)COc1cccc(C(=O)N[C@@H](Cc2cn(CC(=O)O)c3ccccc23)C(=O)*)c1; Bip(4'-NH) = O=C([C@H](Cc1ccc(-c2ccc(N[*:3])cc2)cc1)N[*:1])[*:2]; X71 = O=C(O)Cn1cc(C[C@H](NC(=O)c2cccc(C(=O)O)c2)C(=O)*)c2ccccc21; Indazole3carbonyl(1-CH2COOH) = O=C(O)Cn1nc(C(=O)*)c2ccccc21; Bip(4'-COOH) = N[C@@H](Cc1ccc(-c2ccc(C(=O)O)cc2)cc1)C(=O)O; X76 = O=C(O)CCC(=O)N[C@@H](Cc1cn(CC(=O)O)c2ccccc12)C(=O)*; X83 = N=C(NCCC[C@@H](N[*:1])C(=O)[*:2])NCCc1ccc(O)c(O)c1; X11 = CC(=O)N[C@@H](Cc1cn(CC(=O)O)c2ccccc12)C(=O)*; Ala(imidazol-2-yl) = N[C@@H](Cc1ncc[nH]1)C(=O)O; Ala(morpholin-4-yl) = N[C@@H](CN1CCOCC1)C(=O)O; X88 = CC(=O)N[C@@H](Cc1ccc(OCC(=O)O)cc1)C(=O)*; Bip = N[C@@H](Cc1ccc(-c2ccccc2)cc1)C(=O)O; X60 = O=C(c1ccc2c(c1)CCc1ccccc1-2)*; X61 = O=C(c1ccc2c(c1)Cc1ccccc1-2)*; X16 = Cc1noc(-c2ccc(C(=O)*)cc2)n1; Tic = O=C(O)[C@@H]1Cc2ccccc2CN1; Cha = N[C@@H](CC1CCCCC1)C(=O)O; X20 = O=C(c1csc(-c2ccncc2)n1)*; Tle = CC(C)(C)[C@H](N)C(=O)O; ξP = O=C(O)C1CCCN1; Sar = CNCC(=O)O

What follows are molecules tested against TNFα (Homo sapiens, UniProt P01375) (assay: TNF-Induced HEK-Blue Assay). Conditions: not given.
Format: cell-based

TNFα, sequence (P01375 77-233 limits assumed): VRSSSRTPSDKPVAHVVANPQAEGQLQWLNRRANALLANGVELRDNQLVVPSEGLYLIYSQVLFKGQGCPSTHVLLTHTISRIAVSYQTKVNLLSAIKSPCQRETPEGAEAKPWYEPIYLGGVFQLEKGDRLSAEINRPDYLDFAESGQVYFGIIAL

Row | Compound | IC50
1 | CC(C)C[C@@H]1NC(=O)[C@H](CCCNC(=N)N)NC(=O)[C@H](C(C)C)NC(=O)C2CCCN2C(=O)[C@H](C(C)C)NC(=O)[C@@H](CCCNC(=N)NCCc2ccc(O)c(O)c2)NC(=O)[C@H](CC(=O)O)NC(=O)[C@@H]2CCCN2C(=O)CN(C)C(=O)[C@H](Cc2ccc(-c3ccc(NC(=O)c4nn(CC(=O)O)c5ccccc45)cc3)cc2)NC(=O)[C@H](Cc2ccc(-c3ccccc3)cc2)NC(=O)[C@H](CN2CCOCC2)NC(=O)CSC[C@@H](C(=O)NCC(N)=O)NC1=O (stereo partly shown) [Example 410] ({CH2CO}-[Ala(morpholin-4-yl)][Bip][Bip(4'-NH)](Indazole3carbonyl(1-CH2COOH))[Sar]PD[X83]V[ξP]VRLCG-NH2; thioether N-13) | 200 to 2000 nM

Same assay, conditions: HEK-Blue-CD40L cells, NF-kB-driven secreted alkaline phosphatase reporter; TNFα 0.5 ng/ml; 18 h; read-out: TNF induced HEK-Blue assay IC50 value

Row | IC50 | Compound
2 | < 50 nM | CC[C@H](C)[C@@H]1NC(=O)[C@@H]2CCCN2C(=O)[C@H]([C@@H](C)CC)NC(=O)[C@@H](CCCNC(=N)N)NC(=O)[C@H](CC(=O)O)NC(=O)[C@H](Cc2ccccc2)NC(=O)CN(C)C(=O)[C@H](Cc2ccc(-c3ccc(NC(=O)[C@H](Cc4ccc(OCC(=O)O)cc4)NC(C)=O)cc3)cc2)NC(=O)[C@H](Cc2ccc(-c3ccc(C(=O)O)cc3)cc2)NC(=O)[C@H](C(C)(C)C)NC(=O)CSC[C@@H](C(=O)NCC(N)=O)NC(=O)[C@H](CC(C)C)NC(=O)[C@H](Cc2ncc[nH]2)NC1=O [Example 417] ({CH2CO}-[Tle][Bip(4'-COOH)][Bip(4'-NH)](X88)[Sar]FD[dR]IPI[Ala(imidazol-2-yl)]LCG-NH2; thioether N-13)
3 | 50 to 200 nM | CC[C@H](C)[C@@H]1NC(=O)[C@@H]2CCCN2C(=O)[C@H]([C@@H](C)CC)NC(=O)[C@@H](CCCNC(=N)N)NC(=O)[C@H](CC(=O)O)NC(=O)[C@H](Cc2ccccc2)NC(=O)CN(C)C(=O)[C@H](Cc2ccc(-c3ccc(NC(=O)c4ccc5c(c4)Cc4ccccc4-5)cc3)cc2)NC(=O)[C@H](Cc2ccc(-c3ccc(C(=O)O)cc3)cc2)NC(=O)[C@H](C(C)(C)C)NC(=O)CSC[C@@H](C(=O)NCC(N)=O)NC(=O)[C@H](CC(C)C)NC(=O)[C@H](Cc2cnc[nH]2)NC1=O [Example 418] ({CH2CO}-[Tle][Bip(4'-COOH)][Bip(4'-NH)](X61)[Sar]FD[dR]IPIHLCG-NH2; thioether N-13)
4 | 200 to 2000 nM | CC[C@H](C)[C@@H]1NC(=O)C2CCCN2C(=O)[C@H]([C@@H](C)CC)NC(=O)[C@@H](CCCNC(=N)N)NC(=O)[C@H](CC(=O)O)NC(=O)[C@H](Cc2ccccc2)NC(=O)CN(C)C(=O)[C@H](Cc2ccc(-c3ccc(NC(=O)c4ccc5c(c4)CCc4ccccc4-5)cc3)cc2)NC(=O)[C@H](Cc2ccc(-c3ccc(C(=O)O)cc3)cc2)NC(=O)[C@H](C(C)(C)C)NC(=O)CSC[C@@H](C(=O)NCC(N)=O)NC(=O)[C@H](CC(C)C)NC(=O)[C@H](Cc2ncc[nH]2)NC1=O (stereo partly shown) [Example 419] ({CH2CO}-[Tle][Bip(4'-COOH)][Bip(4'-NH)](X60)[Sar]FD[dR]I[ξP]I[Ala(imidazol-2-yl)]LCG-NH2; thioether N-13)

Second part, the molecule before the results:

Row | Compound | IC50
5 | CC[C@H](C)[C@@H]1NC(=O)[C@@H](CCCNC(=N)N)NC(=O)[C@H](CC(=O)O)NC(=O)[C@H](Cc2cnc[nH]2)NC(=O)CN(C)C(=O)[C@H](Cc2ccc(-c3ccc(NC(=O)c4csc(-c5ccncc5)n4)cc3)cc2)NC(=O)[C@H](Cc2ccc(-c3ccc(C(=O)O)cc3)cc2)NC(=O)[C@H](CC2CCCCC2)NC(=O)CSC[C@@H](C(=O)NCC(N)=O)NC(=O)[C@H](CC(C)C)NC(=O)[C@H](Cc2ncc[nH]2)NC(=O)[C@H](C(C)C)NC(=O)[C@@H]2Cc3ccccc3CN2C1=O [Example 411] ({CH2CO}-[Cha][Bip(4'-COOH)][Bip(4'-NH)](X20)[Sar]HD[dR]I[Tic]V[Ala(imidazol-2-yl)]LCG-NH2; thioether N-13) | 50 to 200 nM
6 | CC[C@H](C)[C@@H]1NC(=O)[C@@H](CCCNC(=N)N)NC(=O)[C@H](CC(=O)O)NC(=O)[C@H](Cc2cnc[nH]2)NC(=O)CN(C)C(=O)[C@H](Cc2ccc(-c3ccc(NC(=O)c4ccc(-c5nc(C)no5)cc4)cc3)cc2)NC(=O)[C@H](Cc2ccc(-c3ccc(C(=O)O)cc3)cc2)NC(=O)[C@H](CC2CCCCC2)NC(=O)CSC[C@@H](C(=O)NCC(N)=O)NC(=O)[C@H](CC(C)C)NC(=O)[C@H](Cc2ncc[nH]2)NC(=O)[C@H](C(C)C)NC(=O)[C@@H]2Cc3ccccc3CN2C1=O [Example 412] ({CH2CO}-[Cha][Bip(4'-COOH)][Bip(4'-NH)](X16)[Sar]HD[dR]I[Tic]V[Ala(imidazol-2-yl)]LCG-NH2; thioether N-13) | 50 to 200 nM
7 | CC[C@H](C)[C@@H]1NC(=O)[C@@H](CCCNC(=N)N)NC(=O)[C@H](CC(=O)O)NC(=O)[C@H](Cc2cnc[nH]2)NC(=O)CN(C)C(=O)[C@H](Cc2ccc(-c3ccc(NC(=O)[C@H](Cc4cn(CC(=O)O)c5ccccc45)NC(=O)CCC(=O)O)cc3)cc2)NC(=O)[C@H](Cc2ccc(-c3ccccc3)cc2)NC(=O)[C@H](CC2CCCCC2)NC(=O)CSC[C@@H](C(=O)NCC(N)=O)NC(=O)[C@H](CC(C)C)NC(=O)[C@H](Cc2ncc[nH]2)NC(=O)[C@H](C(C)C)NC(=O)[C@@H]2CCCN2C1=O [Example 413] ({CH2CO}-[Cha][Bip][Bip(4'-NH)](X76)[Sar]HD[dR]IPV[Ala(imidazol-2-yl)]LCG-NH2; thioether N-13) | 200 to 2000 nM
8 | CC[C@H](C)[C@@H]1NC(=O)[C@@H](CCCNC(=N)N)NC(=O)[C@H](CC(=O)O)NC(=O)[C@H](Cc2cnc[nH]2)NC(=O)CN(C)C(=O)[C@H](Cc2ccc(-c3ccc(NC(=O)[C@H](Cc4cn(CC(=O)O)c5ccccc45)NC(=O)c4cccc(OCC(=O)O)c4)cc3)cc2)NC(=O)[C@H](Cc2ccc(-c3ccccc3)cc2)NC(=O)[C@H](CC2CCCCC2)NC(=O)CSC[C@@H](C(=O)NCC(N)=O)NC(=O)[C@H](CC(C)C)NC(=O)[C@H](Cc2ncc[nH]2)NC(=O)[C@H](C(C)C)NC(=O)[C@@H]2CCCN2C1=O [Example 414] ({CH2CO}-[Cha][Bip][Bip(4'-NH)](X22)[Sar]HD[dR]IPV[Ala(imidazol-2-yl)]LCG-NH2; thioether N-13) | 50 to 200 nM
9 | CC[C@H](C)[C@@H]1NC(=O)[C@@H](CCCNC(=N)N)NC(=O)[C@H](CC(=O)O)NC(=O)[C@H](Cc2cnc[nH]2)NC(=O)CN(C)C(=O)[C@H](Cc2ccc(-c3ccc(NC(=O)[C@H](Cc4cn(CC(=O)O)c5ccccc45)NC(=O)c4cccc(C(=O)O)c4)cc3)cc2)NC(=O)[C@H](Cc2ccc(-c3ccccc3)cc2)NC(=O)[C@H](CC2CCCCC2)NC(=O)CSC[C@@H](C(=O)NCC(N)=O)NC(=O)[C@H](CC(C)C)NC(=O)[C@H](Cc2ncc[nH]2)NC(=O)[C@H](C(C)C)NC(=O)[C@@H]2CCCN2C1=O [Example 415] ({CH2CO}-[Cha][Bip][Bip(4'-NH)](X71)[Sar]HD[dR]IPV[Ala(imidazol-2-yl)]LCG-NH2; thioether N-13) | 50 to 200 nM
10 | CC[C@H](C)[C@@H]1NC(=O)[C@@H]2CCCN2C(=O)[C@H]([C@@H](C)CC)NC(=O)[C@@H](CCCNC(=N)N)NC(=O)[C@H](CC(=O)O)NC(=O)[C@H](Cc2ccccc2)NC(=O)CN(C)C(=O)[C@H](Cc2ccc(-c3ccc(NC(=O)[C@H](Cc4cn(CC(=O)O)c5ccccc45)NC(C)=O)cc3)cc2)NC(=O)[C@H](Cc2ccc(-c3ccc(C(=O)O)cc3)cc2)NC(=O)[C@H](C(C)(C)C)NC(=O)CSC[C@@H](C(=O)NCC(N)=O)NC(=O)[C@H](CC(C)C)NC(=O)[C@H](Cc2ncc[nH]2)NC1=O [Example 416] ({CH2CO}-[Tle][Bip(4'-COOH)][Bip(4'-NH)](X11)[Sar]FD[dR]IPI[Ala(imidazol-2-yl)]LCG-NH2; thioether N-13) | 50 to 200 nM
